Series [1] is described as follows: Fluorescein retention in RF ablated hepatic tumors in clinical studies, estimated from serial urine samples. The class given is in vivo, patients. As to conditions: patient 1, after 12 days; 1 ml of 10% fluorescein (100 mg), 20 injections; estimated 2 L urine/day; FIG. 6. Here is the method:
Six patients with unresectable hepatic metastases or hapatocellular carcinoma were enrolled in the Internal Review Board approved protocol following the process of informed consent. Eligibility required that the patient receive RFA for therapeutic intent. RFA was performed using a RadioTherapeutics® device according to their specifications. Subsequently, 1 ml of 10% fluorescein was injected into the ablated tissue (20 different injections).
Because 98% of fluorescein is excreted in the urine, the amount of released and retained fluorescein could be estimated from serial urine sample. Serially, first morning void urine samples were collected and assessed for fluorescein. The retained fluorescein was calculated by subtracting the estimated excreted fluorescein (measured fluorescein (mg/mL)×estimated 2 L urine/day volume) from the total injected fluorescein (100 mg).

The nature of series [2]: Fluorescein retention by RF ablated bovine liver versus number of injections (fluorimeter). The conditions noted are these: total volume 0.5 mL, tissue washed over 10 minutes, FIG. 2. The class given is in vitro ADME. The procedure:
Ablated bovine liver, prepared as in Example 1, was injected 3, 10, or 30 times with fluorescein (total volume of 0.5 mL). The tissue was extensively washed over 10 minutes; and the retained fluorescein was calculated as a percentage of the total injected fluorescein. To quantify the retained fluorescein, the washed tissue was homogenized, centrifuged and the supernatant assessed for fluorescein using a fluorimeter with excitation and emission filters of 485 nm and 525 nm, respectively.

Series [3] can be described thus: Fluorescein retention in RF ablated bovine liver, washed in PBS and photographed under UV light. The class given is in vitro ADME. As to conditions: ablated bovine liver bivalved, agitated in 1 L PBS exchanged daily; photographed under UV light; FIG. 1. From the text: Bovine liver was ablated, injected multiple times with fluorescein. […] The PBS was exchanged daily for two weeks. At weekly intervals, the ablated tissue was photographed under ultraviolet (UV) light. […] This approach can be used to help train and assess people to use the technique.

For series [4] the following is noted: general statement used as the basis of the calculation; cited from earlier work.
Series [5] in a line: Fluorescein retention in RF ablated subcutaneous Ras-6 tumors in vivo. Further details: species or system Balb/c female mice. As to conditions: Ras-6 flank tumors, RFA, 50 μl fluorescein in 1 to 3 injections; FIG. 4. The procedure: Balb/c female mice were injected with 10^6 Ras-6 tumor cells in the flank. The Ras-6 tumor was derived by transfection of a p53-null BALB/c murine embryo fibroblast line with a mutant ras gene. Once the tumors reached 0.5-1 cm in size, the animals were placed under general anesthesia; and the tumors was ablated using a 0.7 cm multi-tined probe. RFA was accomplished by starting with 1-3 watts of power and increasing the power every 30 seconds. A special resistor circuit was placed in the circuit to avoid a low resistance default interrupt error built into the RFA generator. Following RFA, the tumors were injected with a total volume of 50 μl of fluorescein using 1 to 3 injections. At various intervals, the animals were sacrificed and the retained fluorescein assessed. FIG. 4 depicts the residual fluorescein after 1, 3, and 8 days. Consistent with the ex vivo studies, the amount of fluorescein decreases over this time interval; however, substantial fluorescein remains in the ablated tumor for ar least 8 days in vivo.

Series [6] in a line: Release of fluorescein from RF ablated bovine liver tissue. As to conditions: FIG. 3. The class given is in vitro ADME. From the text: To determine the rate of fluorescein release, bovine liver was ablated with RF and injected with fluorescein. […] However, after one week of continued washing, the ablated tissue still contained greater than 50% of the original fluorescein.

The structures appear in SMILES notation.

As to `O=C1OC2(c3ccc(O)cc3Oc3cc(O)ccc32)c2ccccc21` [fluorescein], in series [1], the “calculated fluorescein retained in the ablated tumor” value was “greater than 90%”. The figures for the “retained fluorescein as a percentage of the total injected fluorescein” value in series [2] (3 injections), in series [2] (10 injections) and in series [2] (30 injections) were 41%, 49% and “about 65%”, respectively. For the same compound, the “time fluorescein was detected within the ablated tissue” value in series [3] is reported as “at least two weeks”. The “fluorescein excreted in the urine” value in series [4] was 98%. Also, the “time substantial fluorescein remains in the ablated tumor in vivo” value in series [5] is no less than 8 days. Further, in series [6] (RF ablated bovine liver, continued washing), the “course of released fluorescein” value is reported as “exponential decline”. Further, in series [6] (after one week of continued washing), the “fluorescein still contained in the ablated tissue, of the original fluorescein” value was “greater than 50%”.

The values are drawn from patent publication US20050238619A1, “Method for the delivery of sustained release agents” (priority 2004, published 2005).
